Test results as given in a compilation of properties of binary mixtures (doi:10.1016/j.molliq.2017.12.015).

Test: xn = mol fraction of the nth substance listed
Details: 100 kPa

CCOCCO + CCCC[n+]1ccn(C)c1.O=S(=O)([N-]S(=O)(=O)C(F)(F)F)C(F)(F)F
speed of sound [m/s]
Details | x2 = 0 | x2 = 0.1036 | x2 = 0.1905 | x2 = 0.2965 | x2 = 0.3882 | x2 = 0.489 | x2 = 0.5889 | x2 = 0.7018 | x2 = 0.7928 | x2 = 0.9071
298.15 K | 1302.8 | 1279.9 | – | – | 1240.5 | 1234.5 | 1231.4 | 1230.7 | – | 1228.3
303.15 K | 1285.1 | 1264.6 | 1246.6 | 1234.2 | – | 1223.9 | 1219.6 | 1219 | 1218.4 | 1217.3
308.15 K | 1267.3 | 1248.9 | 1232.1 | 1220.6 | 1214.5 | 1210.4 | 1207.6 | 1207.2 | 1206.9 | 1206.1
313.15 K | – | 1230.1 | 1217.7 | – | – | 1198 | 1197.7 | 1196.5 | 1196 | 1195
318.15 K | 1232 | 1217.4 | 1203.3 | – | – | 1187.7 | 1186.9 | 1185.9 | – | 1185
323.15 K | 1214.3 | 1201.5 | 1189 | – | 1176.2 | 1175.5 | 1175 | 1174.9 | 1174.3 | 1174

CCCC[n+]1ccn(C)c1.O=S(=O)([N-]S(=O)(=O)C(F)(F)F)C(F)(F)F + CCOCCO
x1 = 1
Details | speed of sound [m/s]
298.15 K | 1227.8
303.15 K | 1216.7
308.15 K | 1205.8
313.15 K | 1194.9
318.15 K | 1184.2
323.15 K | 1173.6
